Broadly, the pKi is −log10 of the Ki, conventionally taken in molar units.

Structures are written as SMILES. pKi: −log10 of the molar value.

Experimental findings from ChEMBL document CHEMBL4177675, “The synthesis of 2,3,6-trisubstituted 1-oxo-1,2-dihydroisoquinolines as potent CRTh2 antagonists” (Bioorg Med Chem Lett, 2017) are described below.

For assay [1], the target named is T1, Prostaglandin D2 receptor 2 (Homo sapiens, UniProt Q9Y5Y4).
T1 sequence (Q9Y5Y4 whole entry): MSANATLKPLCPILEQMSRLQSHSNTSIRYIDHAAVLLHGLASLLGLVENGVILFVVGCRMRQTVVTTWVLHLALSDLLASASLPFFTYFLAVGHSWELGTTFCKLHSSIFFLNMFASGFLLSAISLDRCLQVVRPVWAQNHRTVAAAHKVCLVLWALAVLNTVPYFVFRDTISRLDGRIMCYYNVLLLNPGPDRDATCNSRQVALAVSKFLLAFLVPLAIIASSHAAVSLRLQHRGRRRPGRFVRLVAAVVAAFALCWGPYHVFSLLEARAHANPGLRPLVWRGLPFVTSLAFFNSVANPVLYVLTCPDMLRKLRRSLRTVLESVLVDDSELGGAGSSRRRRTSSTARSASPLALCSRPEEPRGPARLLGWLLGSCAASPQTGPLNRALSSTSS
Briefly: Antagonist activity at CRTh2 (unknown origin) assessed as inhibition of CD11b activation. The format is functional.

Assay [2] concerns the target T1, Prostaglandin D2 receptor 2. Briefly: Binding affinity to human CRTh2 assessed by competitive binding assay.

Consider `O=C(O)CCCCc1cc2cc(C(=O)N[C@@H]3CCCc4cc(F)ccc43)ccc2c(=O)n1-c1ccc(F)cc1`, for which the pKi in assay [1] was 8.88.

Regarding `O=C(O)CCCCc1cc2cc(C(=O)N[C@@H]3CCCc4ccccc43)ccc2c(=O)n1-c1ccc(F)cc1`, the pKi in assay [1] was 9.40.

`C[C@@H]1CN(c2ccc(F)cc2)CCN1C(=O)c1ccc2c(=O)n(-c3ccc(F)cc3)c(CCCCC(=O)O)cc2c1` showed a pKi in assay [2] of 7.62.

As to `C[C@@H](NC(=O)c1ccc2c(=O)n(-c3ccc(C#N)cc3)c(CCCCC(=O)O)cc2c1)c1ccc(F)cc1`, the pKi in assay [2] is 8.04.

Regarding `C[C@@H](NC(=O)c1ccc2c(=O)n(-c3ccc(F)cc3)c(CCCCC(=O)O)cc2c1)c1ccc(F)cc1`, the pKi in assay [1] is 9.64; in assay [2], 8.23.

In assay [2], `COc1ccc(-n2c(CCCCC(=O)O)cc3cc(C(=O)N[C@H](C)c4ccc(F)cc4)ccc3c2=O)cc1` showed a pKi of 8.07.

For the molecule `O=C(O)CCCCc1cc2cc(C(=O)Nc3noc(Cc4ccc(F)cc4)n3)ccc2c(=O)n1-c1ccc(F)cc1`, the pKi in assay [2] was 8.11.

Take `CC1(c2nc3ccc(F)cc3o2)CC(NC(=O)c2ccc3c(=O)n(-c4ccc(F)cc4)c(CCCCC(=O)O)cc3c2)=NO1` (stereo not drawn): the pKi in assay [2] is 7.59.

`CC(c1ccc(F)cc1)c1nc(NC(=O)c2ccc3c(=O)n(-c4ccc(F)cc4)c(CCCCC(=O)O)cc3c2)no1` (stereo not drawn) had a pKi in assay [2] of 7.89.

`C[C@@H](NC(=O)c1ccc2c(=O)[nH]c(CCCCC(=O)O)cc2c1)c1ccc(F)cc1` had a pKi in assay [2] of 6.15.

The molecule `O=C(O)CCCCc1cc2cc(C(=O)Nc3cc(Cc4ccc(F)cc4)on3)ccc2c(=O)n1-c1ccc(F)cc1` showed a negative-log Ki (pKi) in assay [2] of 7.96.

In the case of `O=C(O)CCCCc1cc2cc(C(=O)Nc3noc(C4Cc5ccccc5C4)n3)ccc2c(=O)n1-c1ccc(F)cc1`, in assay [2], the pKi was 7.66.
